One assay addresses T1, monkey chymase (Macaca fascicularis, UniProt P56435).
T1 construct: chymase was extracted from homogenized monkey cheek pouch and stomach; from tissue; host or cells: monkey cheek pouch and stomach
T1 sequence (P56435 22-247): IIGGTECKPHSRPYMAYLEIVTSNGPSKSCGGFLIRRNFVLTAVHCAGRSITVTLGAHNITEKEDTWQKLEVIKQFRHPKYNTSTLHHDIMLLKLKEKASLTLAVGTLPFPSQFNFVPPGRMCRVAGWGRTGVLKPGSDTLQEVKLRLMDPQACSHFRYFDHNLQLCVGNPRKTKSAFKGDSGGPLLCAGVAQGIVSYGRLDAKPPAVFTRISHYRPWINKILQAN
The experiment in a line: Monkey chymase inhibitory activity (in vitro, angiotensin I substrate). It counts as biochemical. As to conditions: for IC50: chymase purified from monkey cheek pouch and stomach, substrate angiotensin I, 37° C. The protocol: (§1) The inhibitory activities of the compounds on monkey chymase and human chymase were tested in vitro. The test compounds are as shown by Compound Nos. in Tables 13 and 14.
Preparation of Monkey Chymase
Chymase was purified from monkey cheek pouch and stomach in the following manner.
Briefly, chymase was extracted from homogenized monkey cheek pouch and stomach with 0.01 mol/1000 ml sodium phosphate buffer, pH 7.4, containing 2 mol/1000 ml KCl and 0.1% Nonidet P-40 (Amresco Inc.). The solution containing chymase was applied to a heparin actigel column, and the chymase-rich fractions were collected.
(§2) Measurement of Chymase Inhibitory Activity (In Vitro Assay)
(§3) Briefly, the purified monkey or human chymase was diluted to an appropriate concentration with 0.01 mol/1000 ml sodium phosphate buffer, pH 7.4, containing 2 mol/1000 ml KCl and 0.1% Nonidet P-40 and used as enzyme solution. Angiotensin I (Peptide Institute Inc.) was diluted with water to 5 mg/ml and used as substrate solution. Test compounds were serially diluted with 10% DMSO. […] After pre-incubation of the mixture at 37° C., 20 μl of the substrate solution was added to the enzyme-test compound mixture and the new mixture was incubated at 37° C. Fifty μl of 30% trichloroacetic acid solution was finally added to stop the enzymatic reaction.
(§4) The amount of L-His-L-Leu was measured as angiotensin II produced by the enzymatic reaction. Briefly, 10 μl of the reaction mixture and 10 μl of 1% orthophthalaldehyde solution dissolved in methanol were mixed with 100 μl of 2 mol/1000 ml NaOH and kept at room temperature. The reaction was then stopped by adding 10 μl of 6 mol/1000 ml HCl.

The target in another assay is T2, human chymase (Homo sapiens, UniProt P23946).
T2 construct: made in house; host or cells: COS7 cells (transient transfection)
T2 sequence (P23946 22-247): T1 sequence (P56435 22-247) with S29F, V44A, K63E, Y159D, L201S, K221Q
The experiment in a line: Human chymase inhibitory activity (in vitro, angiotensin I substrate). Particulars: for IC50: recombinant human chymase (COS7 cells), substrate angiotensin I, 37° C., read-out: Human Chymase Inhibition (IC50:nM). It counts as biochemical. The protocol: as §1
Preparation of Human Chymase
Human chymase was produced in mammalian cells using a recombinant DNA technique.
Construction of a human prochymase expression plasmid was performed in the following manner. Briefly, single stranded cDNA was synthesized from human heart mRNA (Clontech Laboratories, Inc.). Polymerase chain reaction amplification was carried out using the cDNA as a template and appropriate pairs of primers. The primer sequences were determined based on the human preprochymase. The amplified product was cloned into the plasmid pUC18, and then recloned into the plasmid pBluescript II KS(+) (Stratagene). Finally, the DNA fragment carrying the entire protein-coding sequences of the human preprochymase was inserted to a transient expression vector by the usual method to yield the human prochymase expression plasmid.
Transfection of COS7 cells with the human prochymase expression plasmid was carried out using the FuGene™ 6 transfection reagent (Boehringer Mannheim). About 7 hours after exposure to DNA, the culture medium was changed to a serum-free one. The culture supernatant was collected after 2 days culture.
Human prochymase was purified from the culture supernatant using a heparin actigel column as described above in the preparation of monkey chymase.
In order to produce active chymase, the human prochymase was incubated with dipeptidylpeptidase I (Sigma). The resultant active human chymase was purified using a heparin actigel column as described above. The active human chymase was eluted with 0.01 mol/1000 ml sodium phosphate buffer pH 7.4 containing 2 mol/1000 ml NaCl.
as §2
as §3, with “The chymase inhibitory activities of compounds I-A of this invention were measured according to the following method. Briefly,” for “Briefly,”
as §4, with “HCl. Finally, the fluorescence induced by the reaction was measured using in a photometer with an excitation wavelength of 355 nm and an emission wavelength of 460 nm. Chymase inhibitory activities of test compounds were expressed as 50% inhibitory concentration (IC50).” for “HCl.”

The mark [1] stands for this setting: read-out: Monkey Chymase Inhibition (IC50:nM).

Residue numbers refer to the chain shown, from its start. Structures can show the parent of a compound that is named as a salt. Where two headings read alike, the source gives them in different places.

For the molecule `Cc1nnsc1C(=O)N[C@H](C(=O)N1CCC[C@H]1C(=O)NC(Cc1cc2ccccc2s1)C(=O)C(F)(F)F)C(C)C` (stereo partly shown) [I-A-97], the 50% inhibitory concentration (IC50) came to 59 nM on monkey chymase (setting [1]) and 75 nM at human chymase.

On to `CNC1CCN(C(=O)N[C@H](C(=O)N2CCC[C@H]2C(=O)N[C@@H](Cc2ccccc2)C(=O)C(F)(F)F)C(C)C)CC1` [Reference compound (A), [(2S)-1-((2S)-3-methyl-2-{[4-(methylamino)piperidyl]carbonylamino}butanoyl)pyrrolidin-2-yl]-N-[(1S)-3,3,3-trifluoro-2-oxo-1-benzylpropyl]carboxamide hydrochloride, reference compound], for which the IC50 on monkey chymase (setting [1]) is 1600 nM; at human chymase, 1200 nM. Also, on monkey chymase (summary of Table 13), the “inhibitory activity on monkey chymase (in words)” value is given as “very low chymase inhibitory activity”. Also, at human chymase (summary of Table 14), the “inhibitory activity on human chymase (in words)” value is on record as “very low chymase inhibitory activity”.

For `CC(C)[C@H](NC(=O)c1ccc2c(c1)no[n+]2[O-])C(=O)N1CCC[C@H]1C(=O)NC(Cc1csc2ccccc12)C(=O)C(F)(F)F` (stereo partly shown) [I-A-52], the IC50 on monkey chymase (setting [1]) came out at 31 nM; on human chymase, 57 nM.

In the case of `CC(C)[C@H](NC(=O)c1ccoc1)C(=O)N1CCC[C@H]1C(=O)NC(Cc1ccc2ccccc2c1)C(=O)C(F)(F)F` (stereo partly shown) [I-A-63], the IC50 at monkey chymase (setting [1]) is 150 nM; at human chymase, 92 nM.

`CC(C)[C@H](NC(=O)c1ccoc1)C(=O)N1CCC[C@H]1C(=O)NC(Cc1csc2ccccc12)C(=O)C(F)(F)F` (stereo partly shown) [I-A-64]: the IC50 on monkey chymase (setting [1]) is 73 nM; on human chymase it was 96 nM.

For the molecule `CC(C)[C@H](NC(=O)c1ccc2c(c1)no[n+]2[O-])C(=O)N1CCC[C@H]1C(=O)NC(Cc1ccccc1)C(=O)C(F)(F)F` (stereo partly shown) [I-A-54], the IC50 on monkey chymase (setting [1]) is 42 nM; on human chymase it was 90 nM.

For the molecule `CC(C)[C@H](NC(=O)c1ccc2nonc2c1)C(=O)N1CCC[C@H]1C(=O)NC(Cc1cc2ccccc2s1)C(=O)C(F)(F)F` (stereo partly shown) [I-A-95], the IC50 turned out to be 47 nM at monkey chymase (setting [1]) and 95 nM on human chymase.

With `O=C(O)Cn1c(=O)ccn(CC(=O)N[C@@H](CC2CCCCC2)C(=O)N2CCC[C@H]2C(=O)NC(Cc2ccccc2)C(=O)C(F)(F)F)c1=O` (stereo partly shown) [I-A-91], the IC50 on monkey chymase (setting [1]) stood at 150 nM.

As for `Cc1noc(C)c1C(=O)N[C@H](C(=O)N1CCC[C@H]1C(=O)NC(Cc1ccccc1)C(=O)C(F)(F)F)C(C)C` (stereo partly shown) [I-A-26], the IC50 at monkey chymase (setting [1]) was found to be 44 nM.

On to `Cc1noc(C)c1C(=O)N[C@H](C(=O)N1CCC[C@H]1C(=O)NC(Cc1cccc(Cl)c1)C(=O)C(F)(F)F)C(C)C` (stereo partly shown) [I-A-38], for which the IC50 at monkey chymase (setting [1]) turned out to be 110 nM.

In the case of `CC(C)[C@H](NC(=O)c1onc2cccnc12)C(=O)N1CCC[C@H]1C(=O)NC(Cc1csc2ccccc12)C(=O)C(F)(F)F` (stereo partly shown) [I-A-71], the IC50 on monkey chymase (setting [1]) came to 140 nM.

As to `Cc1noc(C)c1C(=O)N[C@H](C(=O)N1CCC[C@H]1C(=O)NC(Cc1c[nH]c2ccccc12)C(=O)C(F)(F)F)C(C)C` (stereo partly shown) [I-A-10], the IC50 at monkey chymase (setting [1]) was found to be 77 nM.

Consider `CC(C)[C@H](NC(=O)c1cccs1)C(=O)N1CCC[C@H]1C(=O)NC(Cc1csc2ccccc12)C(=O)C(F)(F)F` (stereo partly shown) [I-A-70], for which the IC50 at monkey chymase (setting [1]) came to 140 nM.

In the case of `CC(C)[C@H](NC(=O)c1ccc2snnc2c1)C(=O)N1CCC[C@H]1C(=O)NC(Cc1csc2ccccc12)C(=O)C(F)(F)F` (stereo partly shown) [I-A-55], the IC50 on monkey chymase (setting [1]) is 63 nM.

Take `Cc1noc(C)c1C(=O)N[C@H](C(=O)N1CCC[C@H]1C(=O)NC(Cc1coc2ccccc12)C(=O)C(F)(F)F)C(C)C` (stereo partly shown) [I-A-9]: the IC50 at monkey chymase (setting [1]) came to 61 nM.

In the case of `CC[C@H](NC(=O)c1snnc1C)C(=O)N1CCC[C@H]1C(=O)NC(Cc1csc2ccccc12)C(=O)C(F)(F)F` (stereo partly shown) [I-A-21], at monkey chymase (setting [1]), the IC50 turned out to be 19 nM.

For the molecule `Cc1noc(C)c1C(=O)N[C@H](C(=O)N1CCC[C@H]1C(=O)NC(Cc1cccs1)C(=O)C(F)(F)F)C(C)C` (stereo partly shown) [I-A-17], at monkey chymase (setting [1]), the IC50 came out at 140 nM.

As for `CC(C)[C@H](NC(=O)c1ccc2c(c1)OCO2)C(=O)N1CCC[C@H]1C(=O)NC(Cc1csc2ccccc12)C(=O)C(F)(F)F` (stereo partly shown) [I-A-57], the IC50 on monkey chymase (setting [1]) amounted to 100 nM.

With `Cc1nnsc1C(=O)N[C@H](C(=O)N1CCC[C@H]1C(=O)NC(Cc1ccccc1)C(=O)C(F)(F)F)C(C)C` (stereo partly shown) [I-A-96], the IC50 on monkey chymase (setting [1]) is 50 nM; on human chymase, 77 nM.

For `CC(C)[C@H](NC(=O)c1ccc2c(c1)no[n+]2[O-])C(=O)N1CCC[C@H]1C(=O)NC(Cc1ccc2ccccc2c1)C(=O)C(F)(F)F` (stereo partly shown) [I-A-53], the IC50 at monkey chymase (setting [1]) came to 31 nM; at human chymase, 69 nM.

As to `Cc1noc(C)c1C(=O)N[C@H](C(=O)N1CCC[C@H]1C(=O)NC(Cc1ccc2c(c1)CCC2)C(=O)C(F)(F)F)C(C)C` (stereo partly shown) [I-A-18], the IC50 at monkey chymase (setting [1]) was determined as 220 nM.

On to `Cc1ccc(CC(NC(=O)[C@@H]2CCCN2C(=O)[C@@H](NC(=O)c2c(C)noc2C)C(C)C)C(=O)C(F)(F)F)cc1` (stereo partly shown) [I-A-35], for which the IC50 at monkey chymase (setting [1]) amounted to 80 nM.

`Cc1noc(C)c1C(=O)N[C@H](C(=O)N1CCC[C@H]1C(=O)NC(Cc1ccc(Cl)cc1)C(=O)C(F)(F)F)C(C)C` (stereo partly shown) [I-A-29]: the IC50 on monkey chymase (setting [1]) was determined as 57 nM.

On to `Cc1snnc1C(=O)N[C@H](C(=O)N1CCC[C@H]1C(=O)NC(Cc1cc2ccccc2s1)C(=O)C(F)(F)F)C(C)C` (stereo partly shown) [I-A-99], for which the IC50 on monkey chymase (setting [1]) came to 83 nM.

In the case of `Cc1noc(C)c1C(=O)N[C@H](C(=O)N1CCC[C@H]1C(=O)NC(Cc1cccc2ccccc12)C(=O)C(F)(F)F)C(C)C` (stereo partly shown) [I-A-15], the IC50 at monkey chymase (setting [1]) came out at 82 nM.

With `CC(C)[C@H](NC(=O)c1ccnc2ccccc12)C(=O)N1CCC[C@H]1C(=O)NC(Cc1csc2ccccc12)C(=O)C(F)(F)F` (stereo partly shown) [I-A-56], at monkey chymase (setting [1]), the IC50 was determined as 47 nM.

In the case of `Cc1nsc(C(=O)N[C@H](C(=O)N2CCC[C@H]2C(=O)NC(Cc2cc3ccccc3s2)C(=O)C(F)(F)F)C(C)C)n1` (stereo partly shown) [I-A-100], the IC50 at monkey chymase (setting [1]) stood at 260 nM.

Take `CC(C)[C@H](NC(=O)c1ccncc1)C(=O)N1CCC[C@H]1C(=O)NC(Cc1csc2ccccc12)C(=O)C(F)(F)F` (stereo partly shown) [I-A-66]: the IC50 against monkey chymase (Monkey Chymase Inhibition (IC50:nM)) came to 49 nM.

On to `Cc1cccc(CC(NC(=O)[C@@H]2CCCN2C(=O)[C@@H](NC(=O)c2c(C)noc2C)C(C)C)C(=O)C(F)(F)F)c1` (stereo partly shown) [I-A-40], for which the IC50 on monkey chymase (setting [1]) came out at 120 nM.

By IC50 is commonly meant the concentration needed to halve the response being measured.

(Values after patent publication US6852744B2, “Pyrrolidine derivatives and their use as chymase inhibitor” (Dainippon Pharmaceutical Co., Ltd., priority 2000, dated 2005).)
